Assays:
[1] = target: T1, E. coli-expressed ΔK280 tauRD protein (Homo sapiens, UniProt P10636, DEL597-597); assay: Anti-ΔK280 tauRD aggregation assay (thioflavin T); format: biochemical; details: compounds tested 1–10 μM, 20 μM protein, 48 h, linear interpolation, read-out: EC50 for ΔK280 tauRD aggregation inhibition
T1 construct: assessed by using E. coli-expressed ΔK280 tauRD protein; made in house; host or cells: E. coli
Procedure: Thioflavin T is widely used to visualize and quantify the presence of misfolded amyloid protein aggregates in vitro [74]. The tau aggregation inhibiting potential of Congo red, LM-031 and LMDS-1 to -4 was assessed by using E. coli-expressed ΔK280 tauRD protein [28]. Briefly, purified ΔK280 tauRD protein (20 μM) was incubated with Congo red or coumarin compounds (1–10 μM) in 150 mM NaCl and 20 mM Tris-HCl pH8.0, at 37 °C with shaking for 48 h to form aggregates. Then, thioflavin T (final 5 μM; Acros Organics, Geel, Belgium) was added and incubated for 25 min at room temperature. Fluorescence intensity of samples was recorded at excitation/emission wavelengths of 420/485 nm using an FLx800 microplate reader (BioTek, Winooski, VT, USA). The half maximal effective concentration (EC50) values were calculated by using a linear interpolation method.

[2] = tested on: ΔK280 tauRD-DsRed SH-SY5Y cells; assay: Neurite outgrowth in cells infected with TRKB-specific or scrambled shRNA; format: cell-based, human; details: scrambled shRNA; 10 µM
Procedure: As described, ∆K280 tauRD-DsRed SH-SY5Y cells were seeded in a 24-well plate (5 × 10^4/well) with retinoic acid addition on day 1, treated with tested compounds (10 µM) and ∆K280 tauRD-DsRed expression was induced with doxycycline (2 μg/mL) on day 2. On day 8, after being fixed in 4% paraformaldehyde for 15 min, permeabilized in 0.1% Triton X-100 for 10 min and blocked in 3% bovine serum albumin (BSA) for 20 min, the cells were stained with TUBB3 (neuronal class III β-tubulin) primary antibody (1:1000; BioLegend, San Diego, CA, USA) at 4 °C overnight, followed by goat anti-rabbit Alexa Fluor® 555 secondary antibody (1:1000; Molecular probes) at room temperature for 2 h, with 4′-6-diamidino-2-phenylindole (DAPI, 0.1 µg/mL; Sigma-Aldrich) included for nuclei staining. Neuronal images were captured using the high-content analysis system as described. Neurite total length (μm), processes (primary neurite extensions projecting directly from the cell body) and branching (points at which primary neurites bifurcated) were analyzed using Neurite Outgrowth Application Module (MetaXpress; Molecular Devices). Around 5000 cells were analyzed in each of three independent experiments for each sample.
Lentiviral short hairpin RNA (shRNA) targeting TRKB (TRCN0000002243, TRCN0000002245 and TRCN0000002246) and a negative control scrambled (TRC2.Void, ASN000001) from National RNAi Core Facility, IMB/GRC, Academia Sinica, Taipei, Taiwan were applied to knock down TRKB expression in ∆K280 tauRD-DsRed SH-SY5Y cells. On day 1, cells were plated on 6-well (for protein analysis) or 24-well (for neurite outgrowth analysis) plates in the presence of retinoic acid as described. On day 2, the cells were infected with lentivirus (multiplicity of infection of 3 for each shRNA) in medium containing polybrene (8 µg/mL; Sigma-Aldrich) to increase the efficiency of viral infection. […] On day 9, the cells were collected for TRKB protein analysis or analyzed for neurite outgrowth as described.

[3] = tested on: pro-BDNF (31 kDa); assay: Immunoblot of pro-BDNF; format: cell-based, human; details: 10 µM; induced untreated 62%
Procedure: ∆K280 tauRD-DsRed SH-SY5Y cells in 6-well plates (5 × 10^5/well) were treated with retinoic acid (10 µM) on day 1, followed by LMDS-1 or -2 (10 µM) and doxycycline (2 µg/mL) addition on day 2 as described. ERK inhibitor U0126 or PI3K inhibitor wortmannin (10 μM) (LC Laboratories, Woburn, MA, USA) was added on day 6. On day 8, the cells were collected for BDNF, BCL2, BAX and total/phosphorylated TRKB, ERK, AKT, CREB protein analyses as described.
∆K280 tauRD-DsRed SH-SY5Y cells were lysed in buffer containing 50 mM Tris-HCl (pH 8.0), 150 mM NaCl, 1 mM EDTA (pH 8.0), 1 mM EGTA (pH 8.0), 0.1% SDS, 0.5% sodium deoxycholate, 1% Triton X-100 and protease (Sigma-Aldrich)/phosphatase (Roche, Basel, Switzerland) inhibitor cocktails. After two sonications with an interval of 30 min on ice, cell lysates were collected by centrifugation at 14,000× g for 30 min at 4 °C. Protein concentrations were determined using a Bradford assay (Bio-Rad, Hercules, CA, USA). Protein samples (25 µg) were separated by 10–12% SDS-PAGE and transferred to polyvinylidene difluoride (PVDF) membranes (Sigma-Aldrich). […] After three washes with TBST, the immune complexes were detected using horseradish peroxidase-conjugated goat anti-mouse or goat anti-rabbit secondary IgG antibody (1:5000, GeneTex, Irvine, CA, USA) and enhanced chemiluminescence substrates luminol and peroxide (Millipore). […]

T1 sequence (P10636 with tags, fused parts or gaps DEL597-597): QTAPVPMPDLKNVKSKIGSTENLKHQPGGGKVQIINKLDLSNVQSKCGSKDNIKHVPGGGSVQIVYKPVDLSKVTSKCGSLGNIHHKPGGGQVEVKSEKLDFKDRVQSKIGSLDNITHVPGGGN

| EC50 [1] [µM] | SMILES | Neurite branching [2] | pro-BDNF level [3] |
| --- | --- | --- | --- |
| 36 | O=C(c1ccccc1)c1cc2c(O)cccc2oc1=O [LM-031, 3-benzoyl-5-hydroxychromen-2-one] | 1.05–1.07 | – |
| 84 | CCOc1ccc2cc(C(=O)c3ccccc3)c(=O)oc2c1 [LMDS-1] | 1.05–1.07 | 94–99% |
| 8 | O=C(c1ccccc1)c1cc2ccc(O)cc2oc1=O [LMDS-2] | 1.05–1.07 | 94–99% |
